From ChEMBL document CHEMBL1201862, “PubChem BioAssay data set” (2004)
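Test compounds were applied to cells in 96-well plates for 48 hours at 5 doses. GI50 = concentration required for 50% inhibition of growth.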 Calls of active or inactive are those of the source. No stated cut-off is given here; in the data, active = GI50 up to about 1.1 µM and inactive = higher.

Tests used:
Test in all cases: DTP human tumour cell line panel, 48 h
[1] = test system: HOP-92
[2] = test system: UACC-62
[3] = test system: COLO 205
[4] = test system: KM12
[5] = test system: NCI-H522
[6] = test system: OVCAR-8
[7] = test system: SF-295
[8] = test system: A498
[9] = test system: K562
[10] = test system: CCRF-CEM
[11] = test system: HL-60
[12] = test system: SK-MEL-28
[13] = test system: ACHN
[14] = test system: LOX IMVI
[15] = test system: Malme-3M
[16] = test system: SNB-75
[17] = test system: MDA-N
[18] = test system: Hs-578T
[19] = test system: MCF7
[20] = test system: SR

Row | Structure (SMILES) | GI50 [1] | GI50 [2] | GI50 [3] | GI50 [4] | GI50 [5] | GI50 [6] | GI50 [7] | GI50 [8] | GI50 [9] | GI50 [10] | GI50 [11] | GI50 [12] | GI50 [13] | GI50 [14] | GI50 [15] | GI50 [16] | GI50 [17] | GI50 [18] | GI50 [19] | GI50 [20]
1 | Cc1cccc(Cl)c1NC(=O)/C=C/c1ccccc1 | 29.6 µM (inactive) | > 100 µM (inactive) | > 100 µM (inactive) | 74.5 µM (inactive) | 49.3 µM (inactive) | 26.1 µM (inactive) | 36.6 µM (inactive) | > 100 µM (inactive) | > 100 µM (inactive) | > 100 µM (inactive) | 84.1 µM (inactive) | > 100 µM (inactive) | 42.3 µM (inactive) | > 100 µM (inactive) | > 100 µM (inactive) | 24.2 µM (inactive) | > 100 µM (inactive) | 33 µM (inactive) | 32.5 µM (inactive) | > 100 µM (inactive)
2 | N#CC(C#N)[C@@H]1CCC=C(Sc2ccccc2)[C@H]1Sc1ccccc1 | 3.39 µM (inactive) | 3.56 µM (inactive) | 2.2 µM (inactive) | 3 µM (inactive) | 2.19 µM (inactive) | 2.7 µM (inactive) | 6.44 µM (inactive) | 13.5 µM (inactive) | 2.36 µM (inactive) | 1.57 µM (inactive) | 2.01 µM (inactive) | 2.72 µM (inactive) | 2.34 µM (inactive) | 2.46 µM (inactive) | 2.42 µM (inactive) | 5.08 µM (inactive) | 1.32 µM (inactive) | 5.16 µM (inactive) | 2.95 µM (inactive) | 1.97 µM (inactive)
3 | COc1ccc(CCNC(=O)Cc2ccccc2CO)cc1OC | > 100 µM (inactive) | > 100 µM (inactive) | > 100 µM (inactive) | > 100 µM (inactive) | > 100 µM (inactive) | > 100 µM (inactive) | > 100 µM (inactive) | > 100 µM (inactive) | > 100 µM (inactive) | > 100 µM (inactive) | > 100 µM (inactive) | > 100 µM (inactive) | > 100 µM (inactive) | > 100 µM (inactive) | – | > 100 µM (inactive) | > 100 µM (inactive) | > 100 µM (inactive) | > 100 µM (inactive) | > 100 µM (inactive)
4 | Cc1c(C)c2c(c(N)c1C#N)C(=O)N(N)C2=O | > 100 µM (inactive) | > 100 µM (inactive) | > 100 µM (inactive) | > 100 µM (inactive) | > 100 µM (inactive) | > 100 µM (inactive) | > 100 µM (inactive) | 40.4 µM (inactive) | > 100 µM (inactive) | > 100 µM (inactive) | > 100 µM (inactive) | > 100 µM (inactive) | > 100 µM (inactive) | – | > 100 µM (inactive) | 47 µM (inactive) | > 100 µM (inactive) | > 100 µM (inactive) | > 100 µM (inactive) | 26.3 µM (inactive)
5 | CCN(CC)P1(=S)Oc2ccc3ccccc3c2-c2c(ccc3ccccc23)O1 | > 100 µM (inactive) | > 100 µM (inactive) | > 100 µM (inactive) | 5 µM (inactive) | 60.1 µM (inactive) | > 100 µM (inactive) | > 100 µM (inactive) | > 100 µM (inactive) | > 100 µM (inactive) | > 100 µM (inactive) | > 100 µM (inactive) | > 100 µM (inactive) | 67.3 µM (inactive) | > 100 µM (inactive) | 72.8 µM (inactive) | 32.2 µM (inactive) | 51.2 µM (inactive) | 40.3 µM (inactive) | > 100 µM (inactive) | 27.4 µM (inactive)
6 | COC(=O)C#Cc1ccc([N+](=O)[O-])cc1 | 2.05 µM (inactive) | 2.69 µM (inactive) | 1.83 µM (inactive) | 1.8 µM (inactive) | 1.75 µM (inactive) | 2.55 µM (inactive) | 4.24 µM (inactive) | 9.91 µM (inactive) | 2.47 µM (inactive) | 0.532 µM (active) | 1.77 µM (inactive) | 1.96 µM (inactive) | 1.41 µM (inactive) | 0.995 µM (active) | 2.27 µM (inactive) | 3.14 µM (inactive) | 2.54 µM (inactive) | 2.84 µM (inactive) | 1.91 µM (inactive) | 0.325 µM (active)
7 | CC(=O)O[C@@H]1C[C@]2(C(=O)c3ccccc3)C(=O)C(=O)S[C@]12c1ccccc1 | 47.8 µM (inactive) | 39.7 µM (inactive) | 38.3 µM (inactive) | 41.1 µM (inactive) | 29.6 µM (inactive) | 36.4 µM (inactive) | 65.9 µM (inactive) | 40.2 µM (inactive) | 24.8 µM (inactive) | – | 0.225 µM (active) | 58.3 µM (inactive) | 62.2 µM (inactive) | 34.3 µM (inactive) | > 100 µM (inactive) | 44 µM (inactive) | 30 µM (inactive) | 39.5 µM (inactive) | 30 µM (inactive) | 32.9 µM (inactive)
